# Laboratory results as given in US20060147456A1, “Induction of apoptosis in toll-like receptor expressing tumor cells” (priority 2004, published 2006).
# Experiments:
# Caspase 3 = assay: Western Blot for Caspase 3 in Cama-1 cells; assay type: cell-based, human; details: Poly IC treatment
# Method: Cama-1 cells were lysed in 1% Nonidet-P40-containing buffer. 20 μg total protein was loaded per lane on SDS-Polyacrylamide gels (Invitrogen). Western Blots (WB) were performed with standard techniques using the antibodies described above. Anti IRAK-4 monoclonal antibodies were generated in the laboratory according to the protocol described in Fossiez et al., “T cell interleukin-17 induces stromal cells to produce proinflammatory and hematopoietic cytokines”, J. Exp. Med., vol. 183(6), pp. 2593-2603 (1996).
# We next addressed the role of caspases in apoptosis. Cama-1 cells were pre-incubated with 25 μM of the general caspase inhibitor z-VAD-fmk or DMSO for 1 hour before culture for 24 hours with or without 5 μg/ml Poly IC or 25 ng/ml TNF-α (used as a positive control). Apoptosis was measured by annexin V staining and expressed as a percentage of apoptotic cell in the culture.
# In another experiment, lysates from cells obtained above were analyzed by Western Blot for cleavage of PARP, Caspase 3 and Caspase 8.
# Cama-1 cells = assay: Apoptosis by annexin V staining and flow cytometry; assay type: cell-based, human
# Method: Cell recovery after treatment with TLR ligands was measured by crystal violet staining (Sigma-Aldrich). Cells were plated at 10^4 cells/well in 96 well plates. After 72 hours of culture either with or without TLR ligand, the cells were washed with PBS, fixed in 6% formaldehyde (Sigma-Aldrich) for 20 minutes, washed twice, and then stained with 0.1% crystal violet for 10 minutes. After washes and incubation in 1% SDS for 1 hour, the absorbance was read at 605 nm on a Vmax plate reader (Molecular Devices, Sunnyvale, Calif.). Annexin V staining was performed with an annexin-FITC apoptosis detection kit (BD Pharmingen, San Diego, Calif.) according to the manufacturer's instructions. Sub-diploid cells were detected by staining with 3 μg/mL propidium iodide (PI) (Molecular probes, Eugene, Oreg.), after overnight permeabilization in 70% ethanol. Fluorescence was analyzed by flow cytometry on a FACScalibur (Becton Dickinson, Mountain View, Calif.) equipped with a doublet-discrimination module and using Celiquest Pro software (Becton Dickinson).
# Cama-1 cells were plated in 6 well plates at 3×10^5 cells per well. After overnight adherence, siRNA transfections were performed for 5 hours in OptiMEM medium (Life technologies) containing 3 μg/mL lipofectamine 2000 (Invivogen) and 100 nM siRNA. Cells were then washed and cultured for 72 hours in complete medium before treatment with Poly IC and apoptosis analysis. siRNA duplexes specific for TLR3, PKR, IRAK-4, TRAF6 and p65 were purchased from Dharmacon (Lafayette, Colo.) as SMART-Pools. TRIF siRNA was purchased from the same supplier as single oligoduplexes (5′-GCUCUUGUAUCUGMGCAC-3′) (SEQ ID NO: 23). TLR3 and TRIF expression was assessed by PCR (35 cycles: 1 min 94° C., 1 min 55° C., 2 min 72° C.) with Taq PCR ReadyMix (Sigma-Aldrich) using following primers: […]
# To further investigate the effect of Poly IC treatment on breast tumor cell lines, cell death was analyzed in Cama-1 cells by annexin V staining. Cells were cultured for 24 hours either with or without 5 μg/ml of Poly IC. Apoptosis was measured by annexin V staining and flow cytometry.
# We also tried to determine the kinetics of Poly IC induced apoptosis. Cama-1 cells were cultured either with or without 5 μg/ml or 50 ng/ml of Poly IC. The percentage of apoptotic (annexin positive) cells in the culture were measured during the following 30 hours. […] Specifically, Poly IC triggered apoptosis in Cama-1 cells beginning 9 hours after Poly IC addition and reaching up to 80% apoptotic cells after 30 hours of treatment.
# Poly AU was analyzed for its effects on apoptosis. Cama-1 cells were cultured for 48 hours either with PBS or with increasing concentrations of Poly AU ranging from 5 ng/ml to 50 μg/ml. Apoptosis was analyzed by measuring the percentage of annexin V positive cells.
# In order to determine the pathway of Poly IC induced Cama-1 cell toxicity, RNA interference was used to efficiently downregulate expression of TRIF and PKR. Cama-1 cells were plated in 6 well plates at 3×10^5 cells per well. After overnight adherence, siRNA transfections were performed for 5 hours in OptiMEM medium (Life technologies) containing 3 μg/mL lipofectamine 2000 (Invivogen) and 100 nM siRNA. Cells were transfected with either MOCK (water), control scrambled duplex (scr) siRNA, TRIF siRNA or PKR siRNA.
# 72 hours after siRNA transfection, Cama-1 cells were cultured for another 24 hours either with or without 5 μg/ml Poly IC. Apoptosis was measured by annexin V staining and expressed as a percentage of apoptotic cells in culture. On average, 10% of control cells (MOCK and scr) that were untreated underwent apoptosis. In contrast, about 75% of control cells (MOCK and scr) that were treated with Poly IC underwent apoptosis.
# To further investigate TLR3 mediated cytotoxicity, the involvement of the signaling molecules IRAK4 and TRAF6, both downstream mediators of TLR signaling, were assessed. Cama-1 cells were plated in 6 well plates at 3×10^5 cells per well. […]
substance,measurement,setting,value
polyinosinic-polycytidylic acid [Poly IC],caspase 3 activation,Caspase 3,activated
same,apoptotic (annexin positive) cells after 30 hours,"Cama-1 cells; Cama-1, 5 μg/ml or 50 ng/ml Poly IC, untreated 15%",80%
same,percentage of apoptotic cells,"Cama-1 cells; Cama-1, 25 μM z-VAD-fmk pre-incubation 1 h, 24 h, 5 μg/ml Poly IC or 25 ng/ml TNF-α",30%
same,cells stained by Annexin V,"Cama-1 cells; Cama-1, 24 h, 5 μg/ml Poly IC",over 70%
same,percentage of apoptotic cells,"Cama-1 cells; Cama-1, DMSO pre-incubation 1 h, 24 h, 5 μg/ml Poly IC or 25 ng/ml TNF-α",70%
same,percentage of apoptotic cells,"Cama-1 cells; Cama-1, absence of antibody (Example 11), 24 h, 5 μg/ml Poly IC or 1000 U/ml each IFN-α/IFN-β",70%
same,percentage of apoptotic cells,"Cama-1 cells; Cama-1, absence of antibody (Example 12), 5 μg/ml Poly IC or 25 ng/ml TNF-α",70%
same,beginning of apoptosis after Poly IC addition,"Cama-1 cells; Cama-1, kinetics over 30 hours",9 h
same,percentage of apoptotic cells,"Cama-1 cells; Cama-1, pre-incubated 1 h with 20 μg/ml anti-IFN R1 mAb, 24 h, 5 μg/ml Poly IC or 1000 U/ml IFN-α/IFN-β",30%
same,percentage of apoptotic cells,"Cama-1 cells; Cama-1, pre-incubated 1 h with 20 μg/ml isotype control mouse IgG1, 24 h, 5 μg/ml Poly IC or 1000 U/ml IFN-α/IFN-β",70%
same,percentage of apoptotic cells,"Cama-1 cells; Cama-1, pre-incubated with 10 μg/ml CHX, 5 μg/ml Poly IC or 25 ng/ml TNF-α, untreated 15%",40%
same,percentage of apoptotic cells,"Cama-1 cells; Cama-1, pre-incubated with 20 μg/ml neutralizing anti TNF-α mAb, 5 μg/ml Poly IC or 25 ng/ml TNF-α",65%
same,percentage of apoptotic cells,"Cama-1 cells; Cama-1 control cells (MOCK and scr), 24 h with 5 μg/ml Poly IC, untreated 10%",about 75%
same,percentage of apoptotic cells,"Cama-1 cells; Cama-1 control cells (scr), Example 10, 24 h with 5 μg/ml Poly IC, untreated 10%",about 75%
same,percentage of apoptotic cells,"Cama-1 cells; Cama-1 scr group, 24 h, Poly IC 50 ng/ml",20%
same,percentage of apoptotic cells,"Cama-1 cells; Cama-1 scr group, 24 h, Poly IC 5 μg/ml",70%
same,percentage of apoptotic cells,"Cama-1 cells; Cama-1 siRNA p65 group, 24 h, Poly IC 50 ng/ml",10%
same,percentage of apoptotic cells,"Cama-1 cells; Cama-1 siRNA p65 group, 24 h, Poly IC 5 μg/ml",20%
